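Where inhibition never reached the appropriate level, the endpoint shown equals the highest concentration tested. Otherwise, values were interpolated linearly from a five-concentration, 48-hour dose response in 96-well plates. The concentration for 50% growth inhibition is given as GI50.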 Active and inactive are the calls of the source. Rule as the data show it: active = GI50 up to about 1.1 µM and inactive = higher.
What was measured:
Experiment in all cases: NCI tumour cell line growth inhibition, 48 h
A549 = system: A549
M14 = system: M14
NCI-H522 = system: NCI-H522
SF-295 = system: SF-295
COLO 205 = system: COLO 205
HCC 2998 = system: HCC 2998
OVCAR-4 = system: OVCAR-4
MDA-MB-231 = system: MDA-MB-231
SR = system: SR
SN12C = system: SN12C
A498 = system: A498
U-251 = system: U-251
HT-29 = system: HT-29
LOX IMVI = system: LOX IMVI
UACC-62 = system: UACC-62
CCRF-CEM = system: CCRF-CEM
RXF 393 = system: RXF 393
HCT-15 = system: HCT-15
SK-MEL-2 = system: SK-MEL-2
NCI-H226 = system: NCI-H226

Structure (SMILES)	GI50 (A549)	GI50 (M14)	GI50 (NCI-H522)	GI50 (SF-295)	GI50 (COLO 205)	GI50 (HCC 2998)	GI50 (OVCAR-4)	GI50 (MDA-MB-231)	GI50 (SR)	GI50 (SN12C)	GI50 (A498)	GI50 (U-251)	GI50 (HT-29)	GI50 (LOX IMVI)	GI50 (UACC-62)	GI50 (CCRF-CEM)	GI50 (RXF 393)	GI50 (HCT-15) [µM]	GI50 (SK-MEL-2)	GI50 (NCI-H226)
C=C1C(=O)OC2CC(C)C(C(O)CC(C)O)=CCC12 (stereo not given)	25.9 µM (inactive)	15.2 µM (inactive)	1.61 µM (inactive)	41.2 µM (inactive)	10.5 µM (inactive)	18 µM (inactive)	19.7 µM (inactive)	17.8 µM (inactive)	8.13 µM (inactive)	11.4 µM (inactive)	16.9 µM (inactive)	16.3 µM (inactive)	13.6 µM (inactive)	10.6 µM (inactive)	16.6 µM (inactive)	1.71 µM (inactive)	12.5 µM (inactive)	14.2	16.3 µM (inactive)	26.1 µM (inactive)
O=C(Nc1ccc2ccccc2c1)c1cc2cc(CCl)ccc2oc1=O	> 100 µM (inactive)	> 100 µM (inactive)	74 µM (inactive)	33.3 µM (inactive)	> 100 µM (inactive)	> 100 µM (inactive)	> 100 µM (inactive)	49 µM (inactive)	> 100 µM (inactive)	> 100 µM (inactive)	> 100 µM (inactive)	30.8 µM (inactive)	> 100 µM (inactive)	> 100 µM (inactive)	> 100 µM (inactive)	55.5 µM (inactive)	22 µM (inactive)	> 100	24 µM (inactive)	57.5 µM (inactive)
N=C1OC(CN2CCN(c3ccccc3)CC2)CN1C(=S)Nc1ccccc1 (stereo not given)	94.8 µM (inactive)	55 µM (inactive)	28.9 µM (inactive)	32.7 µM (inactive)	> 100 µM (inactive)	> 100 µM (inactive)	> 100 µM (inactive)	> 100 µM (inactive)	29.8 µM (inactive)	> 100 µM (inactive)	89.9 µM (inactive)	78.7 µM (inactive)	49.7 µM (inactive)	25.3 µM (inactive)	48.8 µM (inactive)	37.1 µM (inactive)	41.1 µM (inactive)	91	59.2 µM (inactive)	78.9 µM (inactive)
CC1=CCC[C@@H]2[C@@](C)(Cc3cc(O)ccc3O)[C@H](C)CC[C@@]12C	4.94 µM (inactive)	4.94 µM (inactive)	4.83 µM (inactive)	7.28 µM (inactive)	18.2 µM (inactive)	7.66 µM (inactive)	12.1 µM (inactive)	11.9 µM (inactive)	2.38 µM (inactive)	9.2 µM (inactive)	15.3 µM (inactive)	3.89 µM (inactive)	17.7 µM (inactive)	4.99 µM (inactive)	10.5 µM (inactive)	2.1 µM (inactive)	6.44 µM (inactive)	5	14.5 µM (inactive)	16.2 µM (inactive)
CCN(CC)c1ccc2c(c1)Oc1ccc(N(C(C)=O)c3ccccc3)cc1C21OC(=O)c2ccccc21 (stereo not given)	37.8 µM (inactive)	40.6 µM (inactive)	62.7 µM (inactive)	41.8 µM (inactive)	> 64.1 µM (inactive)	> 100 µM (inactive)	> 82.8 µM (inactive)	> 100 µM (inactive)	23.3 µM (inactive)	> 100 µM (inactive)	> 100 µM (inactive)	> 77.3 µM (inactive)	32.3 µM (inactive)	> 100 µM (inactive)	> 91.8 µM (inactive)	21.1 µM (inactive)	> 26.1 µM (inactive)	92.7	> 100 µM (inactive)	> 100 µM (inactive)
Cn1c(=O)c2c(nc3n(Cc4ccccc4)c(=O)c(Br)cn23)n(C)c1=O	> 100 µM (inactive)	> 100 µM (inactive)	> 100 µM (inactive)	> 100 µM (inactive)	> 100 µM (inactive)	> 100 µM (inactive)	> 100 µM (inactive)	> 100 µM (inactive)	1.71 µM (inactive)	> 100 µM (inactive)	> 100 µM (inactive)	> 100 µM (inactive)	> 100 µM (inactive)	> 100 µM (inactive)	> 100 µM (inactive)	> 100 µM (inactive)	> 100 µM (inactive)	> 100	> 100 µM (inactive)	> 100 µM (inactive)
COC(=O)c1c(-c2ccccc2)c2sc3ccccc3n2c1N	29.6 µM (inactive)	76.6 µM (inactive)	24.2 µM (inactive)	34.1 µM (inactive)	28.2 µM (inactive)	31.5 µM (inactive)	56.5 µM (inactive)	87.1 µM (inactive)	76.2 µM (inactive)	33 µM (inactive)	30.5 µM (inactive)	59.4 µM (inactive)	49.7 µM (inactive)	17.3 µM (inactive)	> 100 µM (inactive)	52.4 µM (inactive)	19.4 µM (inactive)	85.7	32.9 µM (inactive)	> 100 µM (inactive)
C/C(=N\N=C1/C(=O)OC(c2ccccc2)=C1C(=O)c1ccccc1)c1ccc([N+](=O)[O-])cc1	41.7 µM (inactive)	65.5 µM (inactive)	27.7 µM (inactive)	45.6 µM (inactive)	52.2 µM (inactive)	47.9 µM (inactive)	37.4 µM (inactive)	79.3 µM (inactive)	6.7 µM (inactive)	49.4 µM (inactive)	> 100 µM (inactive)	41.5 µM (inactive)	73.8 µM (inactive)	34.8 µM (inactive)	38.9 µM (inactive)	25.6 µM (inactive)	46 µM (inactive)	23.7	> 100 µM (inactive)	27.8 µM (inactive)
CON(C)C(=O)CNC(=O)OCC1c2ccccc2-c2ccccc21	> 100 µM (inactive)	> 100 µM (inactive)	> 100 µM (inactive)	> 100 µM (inactive)	> 100 µM (inactive)	> 100 µM (inactive)	> 100 µM (inactive)	> 100 µM (inactive)	30.6 µM (inactive)	> 100 µM (inactive)	57.5 µM (inactive)	98.4 µM (inactive)	> 100 µM (inactive)	18.8 µM (inactive)	> 100 µM (inactive)	44.1 µM (inactive)	> 100 µM (inactive)	78	> 100 µM (inactive)	> 100 µM (inactive)
COC(=O)c1ccc2c(c1)CCN2C(=O)c1cc2c(cc1Br)OCO2	1.74 µM (inactive)	0.276 µM (active)	0.119 µM (active)	0.565 µM (active)	0.406 µM (active)	0.989 µM (active)	1.54 µM (inactive)	1.65 µM (inactive)	0.0817 µM (active)	1.81 µM (inactive)	1.05 µM (active)	0.822 µM (active)	0.373 µM (active)	3.11 µM (inactive)	0.439 µM (active)	0.404 µM (active)	0.863 µM (active)	1.82	0.723 µM (active)	0.277 µM (active)
C=CCC1(O)c2ccccc2C(=O)c2c(O)ccc(O)c21 (stereo not given)	7.55 µM (inactive)	5.01 µM (inactive)	2.62 µM (inactive)	5.07 µM (inactive)	13.3 µM (inactive)	3.94 µM (inactive)	11.1 µM (inactive)	6.15 µM (inactive)	5.48 µM (inactive)	11.6 µM (inactive)	4.36 µM (inactive)	3.97 µM (inactive)	7.28 µM (inactive)	9.66 µM (inactive)	4.01 µM (inactive)	11.6 µM (inactive)	4.12 µM (inactive)	3.61	2.68 µM (inactive)	7.03 µM (inactive)
Nc1nc2cc(CNc3ccc(C(=O)O)cc3)ccc2nc1-c1ccccc1	> 100 µM (inactive)	> 100 µM (inactive)	> 100 µM (inactive)	> 100 µM (inactive)	> 100 µM (inactive)	> 100 µM (inactive)	> 100 µM (inactive)	> 100 µM (inactive)	> 100 µM (inactive)	> 100 µM (inactive)	> 100 µM (inactive)	> 100 µM (inactive)	> 100 µM (inactive)	54.2 µM (inactive)	> 10 µM (inactive)	> 100 µM (inactive)	> 100 µM (inactive)	> 100	> 100 µM (inactive)	> 100 µM (inactive)
C=C1C(=O)C23CC1C[C@H](OC(C)=O)[C@H]2C1(C)C(OC(C)=O)C[C@H](O)C(C)(C)[C@H]1C(=O)[C@@H]3OC(C)=O (stereo not given in full)	17.9 µM (inactive)	2.94 µM (inactive)	1.57 µM (inactive)	17.9 µM (inactive)	2.17 µM (inactive)	19.2 µM (inactive)	4.09 µM (inactive)	5.7 µM (inactive)	2.47 µM (inactive)	4.76 µM (inactive)	16.2 µM (inactive)	15 µM (inactive)	4.49 µM (inactive)	3.4 µM (inactive)	4.86 µM (inactive)	1.41 µM (inactive)	3.09 µM (inactive)	4.37	12.3 µM (inactive)	23.2 µM (inactive)
CCC(=O)NCCc1c[nH]c2ccc(OC)cc12	> 100 µM (inactive)	> 100 µM (inactive)	> 100 µM (inactive)	> 100 µM (inactive)	> 100 µM (inactive)	> 100 µM (inactive)	> 100 µM (inactive)	> 100 µM (inactive)	> 100 µM (inactive)	> 100 µM (inactive)	> 100 µM (inactive)	> 100 µM (inactive)	> 100 µM (inactive)	> 100 µM (inactive)	> 100 µM (inactive)	> 100 µM (inactive)	> 100 µM (inactive)	> 100	> 100 µM (inactive)	> 100 µM (inactive)

Reference: ChEMBL document CHEMBL1201862, “PubChem BioAssay data set” (2004)
